# Laboratory results reported in publication PMC2845880 (Bioorganic & medicinal chemistry letters, 2010).
# What was measured:
# [1] = tested on: T. b. brucei, T. cruzi, Leishmania infantum, Plasmodium falciparum; assay: In vitro biological evaluation against protozoa; type: cell-based; conditions: in vitro protozoa panel
# TbMCA2 = target: T1, TbMCA2 (Trypanosoma brucei brucei, UniProt Q8T8E7); assay: In vitro inhibition of TbMCA2; type: biochemical; conditions: P1 tail modification / peptoid backbone
# T1 sequence (Q8T8E7 1-347): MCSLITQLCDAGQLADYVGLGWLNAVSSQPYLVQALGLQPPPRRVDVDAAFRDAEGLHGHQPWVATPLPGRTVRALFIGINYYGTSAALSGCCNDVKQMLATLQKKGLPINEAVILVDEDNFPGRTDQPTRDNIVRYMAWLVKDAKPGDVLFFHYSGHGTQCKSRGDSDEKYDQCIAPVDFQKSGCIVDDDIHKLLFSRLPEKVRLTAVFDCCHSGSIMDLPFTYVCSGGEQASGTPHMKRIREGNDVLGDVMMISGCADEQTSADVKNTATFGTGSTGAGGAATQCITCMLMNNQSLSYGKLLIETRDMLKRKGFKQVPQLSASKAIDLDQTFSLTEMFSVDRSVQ
# [2] = tested on: human lung fibroblasts (MRC-5); assay: Cytotoxicity on human lung fibroblasts; type: cell-based
# [3] = tested on: Plasmodium falciparum (ring stage and schizont); assay: In vitro antiparasitic evaluation against Plasmodium falciparum; type: cell-based
SMILES,Antiparasitic activity (in words) [1],Antiparasitic activity against P. falciparum (in words) [3],also measured
N#C[C@H](CCCNC(=N)N)NC(=O)OCc1ccccc1 [Compound 1],no antiparasitic activity,–,–
N#C[C@H](Cc1ccc(N)cc1)NC(=O)OCc1ccccc1 [Compound 2],–,–,Activity on TbMCA2 (in words) (TbMCA2): inactive
N#C[C@H](Cc1ccc(NC(=N)N)cc1)NC(=O)OCc1ccccc1 [Compound 3],–,–,Activity on TbMCA2 (in words) (TbMCA2): inactive
N=C(N)NCCC[C@H](NC(=O)OCc1ccccc1)C(=O)c1nc2ccccc2s1 [Compound 11],–,very modest,Cytotoxicity (in words) [2]: without cytotoxicity
Cn1c(C(=O)[C@H](CCCNC(=N)N)NC(=O)OCc2ccccc2)nc2ccccc21 [Compound 14],–,very modest,–
N=C(N)NCCC[C@@H](/C=C/S(=O)(=O)c1ccccc1)NC(=O)OCc1ccccc1 [Compound 15],–,modest antiparasitic activity,–
NCCCC[C@H](NC(=O)OCc1ccccc1)C(=O)c1nc2ccccc2s1 [Compound 16],modest antiparasitic activities,–,–
N=C(N)NCCCC[C@H](NC(=O)OCc1ccccc1)C(=O)c1nc2ccccc2s1 [Compound 17],modest antiparasitic activities,–,–
